Measured values as given in PubChem BioAssay AID504572 (Johns Hopkins Ion Channel Center, 2011).

Biological target: Short transient receptor potential channel 6 (Mus musculus) (UniProt Q61143)
Assay: mouse TRPC6 channel inhibitors, SAR follow-up, HEK293 cells, membrane potential dye, IC50 (AID 504572)
Details: acetylcholine-evoked membrane potential dye, FDSS

Sequence of Short transient receptor potential channel 6 (Mus musculus) (Q61143 whole entry, looked up): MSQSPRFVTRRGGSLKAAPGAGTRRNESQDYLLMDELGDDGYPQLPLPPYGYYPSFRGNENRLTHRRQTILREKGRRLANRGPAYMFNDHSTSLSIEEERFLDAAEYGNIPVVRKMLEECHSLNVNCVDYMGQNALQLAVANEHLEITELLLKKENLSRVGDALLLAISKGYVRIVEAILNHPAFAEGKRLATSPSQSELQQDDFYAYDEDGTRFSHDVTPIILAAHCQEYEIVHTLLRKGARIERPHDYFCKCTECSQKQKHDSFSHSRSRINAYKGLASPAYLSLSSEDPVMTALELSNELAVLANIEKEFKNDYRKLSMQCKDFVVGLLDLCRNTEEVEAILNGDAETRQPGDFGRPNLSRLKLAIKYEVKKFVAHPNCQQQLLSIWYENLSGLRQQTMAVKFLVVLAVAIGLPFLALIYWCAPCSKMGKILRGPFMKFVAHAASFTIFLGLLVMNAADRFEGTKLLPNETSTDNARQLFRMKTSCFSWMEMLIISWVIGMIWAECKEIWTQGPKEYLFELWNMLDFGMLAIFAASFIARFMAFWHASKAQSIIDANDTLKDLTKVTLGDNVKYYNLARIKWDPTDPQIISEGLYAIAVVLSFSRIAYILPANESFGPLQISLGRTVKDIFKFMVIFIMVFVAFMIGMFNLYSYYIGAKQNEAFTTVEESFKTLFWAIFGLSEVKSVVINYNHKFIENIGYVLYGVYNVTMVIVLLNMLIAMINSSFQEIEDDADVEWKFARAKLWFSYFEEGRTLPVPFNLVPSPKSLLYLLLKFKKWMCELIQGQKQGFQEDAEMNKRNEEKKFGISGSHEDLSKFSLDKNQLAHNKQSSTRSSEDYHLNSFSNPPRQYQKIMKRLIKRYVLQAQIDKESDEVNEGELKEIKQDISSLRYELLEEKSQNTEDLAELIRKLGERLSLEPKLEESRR

SMILES	IC50
CC(C)(C)n1cnc2cc(NCc3ccccc3Cl)ccc21	4.76 µM
COc1ccccc1CNc1ccc2c(c1)ncn2C(C)(C)C	5.54 µM
CC(C)(C)n1cnc2cc(NCc3ccc(Cl)cc3Cl)ccc21	6.42 µM

These reach a lower IC50. Values come first.

IC50	SMILES
2.7 µM	COc1ccc(OC)c(CNc2ccc3c(c2)ncn3C(C)(C)C)c1
2.51 µM	CCOc1ccc(CNc2ccc3c(c2)ncn3C(C)(C)C)cc1
2.16 µM	CCOc1ccccc1CNc1ccc2c(c1)ncn2C(C)(C)C
